Measured values reported in patent publication US20060069132A1, “Azolecarboxamide herbicides” (priority 2004, published 2006).

How the values were obtained:
[1] = tested on: rice; experiment: Test B pre-/postemergence herbicide test; type: in vivo, Oryza sativa; details: preemergence, 125 g ai/ha; 0 to 100 scale, 0 is no effect, 100 is complete control
Procedure, shortened: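 Plants compared with untreated controls 13–15 days post-treatment and given a visual 0–100 injury score. Applications: preemergence to seeds; postemergence at 1- to 4-leaf (2–18 cm); paddy species flooded, 2-leaf stage. Vehicle non-phytotoxic, surfactant included.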

[2] = tested on: large crabgrass; experiment: Test C pre-/postemergence herbicide test; type: in vivo, Digitaria sanguinalis
Procedure, shortened: (§1)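 Seeds were planted and sprayed preemergence with test chemicals in a non-phytotoxic solvent mixture containing surfactant; postemergence treatments went onto plants 2 to 18 cm tall (1- to 4-leaf stage). After 12 to 14 days in a greenhouse, injury was rated visually against untreated controls on a 0–100 scale.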

[3] = tested on: woolly cupgrass; experiment: Test C pre-/postemergence herbicide test; type: in vivo, Eriochloa villosa
Procedure, shortened: as §1

[4] = tested on: giant foxtail; experiment: Test C pre-/postemergence herbicide test; type: in vivo, Setaria faberi
Procedure, shortened: as §1

[5] = tested on: lambsquarters; experiment: Test C pre-/postemergence herbicide test; type: in vivo, Chenopodium album
Procedure, shortened: as §1

[6] = tested on: pigweed; experiment: Test C pre-/postemergence herbicide test; type: in vivo, Amaranthus retroflexus
Procedure, shortened: as §1

[7] = tested on: common (oilseed) sunflower; experiment: Test C pre-/postemergence herbicide test; type: in vivo, Helianthus annuus; details: for Plant response rating (0 = no effect, 100 = complete control), Sunflower: 62 g ai/ha; for Plant response rating (0 = no effect, 100 = complete control), Sunflower / Plant response rating, Sunflower: preemergence
Procedure, shortened: as §1

[8] = tested on: velvetleaf; experiment: Test A pre-/postemergence herbicide test; type: in vivo, Abutilon theophrasti; details: for Velvetleaf plant response rating: Preemergence
Procedure, shortened: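 Seeds sown in sandy loam received a preemergence directed soil spray of compound in non-phytotoxic solvent with surfactant; postemergence plants (2–10 cm, one- to two-leaf stage) were sprayed to runoff at the same time. After ~10 days in greenhouse, injury was rated visually versus untreated controls (0 = no effect, 100 = complete control).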

[9] = 125 g ai/ha, scale 0 (no effect) to 100 (complete control), visual, 12 to 14 days, preemergence
[10] = 250 g ai/ha, scale 0 to 100 (0 no effect, 100 complete control), visual, 12 to 14 days, preemergence
[11] = Preemergence, 500 g ai/ha, scale 0 to 100, 0 no effect, 100 complete control
[12] = 125 g ai/ha, scale 0 (no effect) to 100 (complete control), visual, 12 to 14 days
[13] = 250 g ai/ha, scale 0 to 100 (0 no effect, 100 complete control), visual, 12 to 14 days
[14] = 31 g ai/ha, preemergence, scale 0 to 100
[15] = Postemergence, 250 g ai/ha, scale 0 to 100, 0 no effect, 100 complete control
[16] = postemergence, 125 g ai/ha, scale 0 to 100
[17] = postemergence, 62 g ai/ha, scale 0 to 100

SMILES: CCCn1nc(C(C)(C)C)cc1C(=O)Nc1cccc(C(=O)NCC)c1 [Compound 57]
- Plant response rating, Rice [1]: 30
- Plant response rating (0 = no effect, 100 = complete control), Crabgrass, Large ([2]; 62 g ai/ha, preemergence): 95
- Plant response rating, Crabgrass, Large [2, 9]: 100
- Plant response rating, Crabgrass, Large [2, 10]: 100
- Crabgrass, Large plant response rating [2, 11]: 100
- Plant response rating (0 = no effect, 100 = complete control), Cupgrass, Woolly ([3]; 62 g ai/ha, preemergence): 0
- Plant response rating, Cupgrass, Woolly [3, 9]: 0
- Plant response rating, Cupgrass, Woolly [3, 10]: 25
- Cupgrass, Woolly plant response rating [3, 11]: 70
- Plant response rating (0 = no effect, 100 = complete control), Foxtail, Giant ([4]; 62 g ai/ha, preemergence): 20
- Plant response rating, Foxtail, Giant [4, 9]: 95
- Plant response rating, Foxtail, Giant [4, 10]: 100
- Foxtail, Giant plant response rating [4, 11]: 100
- Plant response rating (0 = no effect, 100 = complete control), Lambsquarters ([5]; 62 g ai/ha, preemergence): 100
- Plant response rating, Lambsquarters [5, 9]: 100
- Plant response rating, Lambsquarters [5, 10]: 100
- Lambsquarters plant response rating [5, 11]: 100
- Plant response rating (0 = no effect, 100 = complete control), Pigweed ([6]; 62 g ai/ha, preemergence): 100
- Plant response rating, Pigweed [6, 9]: 100
- Plant response rating, Pigweed [6, 10]: 100
- Pigweed plant response rating [6, 11]: 100
- Plant response rating (0 = no effect, 100 = complete control), Sunflower [7]: 0
- Plant response rating, Sunflower [7, 12]: 0
- Plant response rating, Sunflower [7, 13]: 0
- Sunflower plant response rating [7, 11]: 0

SMILES: CCn1nc(C(C)(C)C)cc1C(=O)Nc1ccc(F)c(C(=O)NCCF)c1 [Compound 60]
- Plant response rating, Velvetleaf ([8]; Postemergence, 2000 g ai/ha, 0 to 100 scale, 0 no effect, 100 complete control): 20
- Velvetleaf plant response rating ([8]; 500 g ai/ha, visual rating, 0 to 100 scale (0 no effect, 100 complete control)): 65
- Velvetleaf plant response rating ([8]; 2000 g ai/ha, 0 to 100 scale, 0 no effect, 100 complete control): 95
- Plant response rating, Rice [1]: 30
- Plant response rating, Crabgrass, Large [2, 14]: 80
- Plant response rating (0 = no effect, 100 = complete control), Crabgrass, Large ([2]; 62 g ai/ha, preemergence): 90
- Plant response rating, Crabgrass, Large [2, 9]: 90
- Plant response rating, Crabgrass, Large [2, 10]: 95
- Plant response rating, Crabgrass, Large [2, 15]: 5
- Plant response rating, Crabgrass, Large [2, 16]: 0
- Plant response rating, Crabgrass, Large [2, 17]: 0
- Plant response rating, Cupgrass, Woolly [3, 14]: 0
- Plant response rating (0 = no effect, 100 = complete control), Cupgrass, Woolly ([3]; 62 g ai/ha, preemergence): 0
- Plant response rating, Cupgrass, Woolly [3, 9]: 10
- Plant response rating, Cupgrass, Woolly [3, 10]: 70
- Plant response rating, Cupgrass, Woolly [3, 15]: 5
- Plant response rating, Cupgrass, Woolly [3, 16]: 5
- Plant response rating, Cupgrass, Woolly [3, 17]: 0
- Plant response rating, Foxtail, Giant [4, 14]: 0
- Plant response rating (0 = no effect, 100 = complete control), Foxtail, Giant ([4]; 62 g ai/ha, preemergence): 0
- Plant response rating, Foxtail, Giant [4, 9]: 15
- Plant response rating, Foxtail, Giant [4, 10]: 80
- Plant response rating, Foxtail, Giant [4, 15]: 5
- Plant response rating, Foxtail, Giant [4, 16]: 5
- Plant response rating, Foxtail, Giant [4, 17]: 0
- Plant response rating, Lambsquarters [5, 14]: 90
- Plant response rating (0 = no effect, 100 = complete control), Lambsquarters ([5]; 62 g ai/ha, preemergence): 100
- Plant response rating, Lambsquarters [5, 9]: 100
- Plant response rating, Lambsquarters [5, 10]: 100
- Plant response rating, Lambsquarters [5, 15]: 70
- Plant response rating, Lambsquarters [5, 16]: 30
- Plant response rating, Lambsquarters [5, 17]: 10
- Plant response rating, Pigweed [6, 14]: 100
- Plant response rating (0 = no effect, 100 = complete control), Pigweed ([6]; 62 g ai/ha, preemergence): 100
- Plant response rating, Pigweed [6, 9]: 100
- Plant response rating, Pigweed [6, 10]: 100
- Plant response rating, Pigweed [6, 15]: 60
- Plant response rating, Pigweed [6, 16]: 40
- Plant response rating, Pigweed [6, 17]: 40
- Plant response rating, Sunflower ([7]; 31 g ai/ha, scale 0 to 100): 0
- Plant response rating (0 = no effect, 100 = complete control), Sunflower [7]: 0
- Plant response rating, Sunflower [7, 12]: 0
- Plant response rating, Sunflower [7, 13]: 0
